Where “and” joins values, the source holds several entries; their conditions need not be identical. Equal entries are not always repeated.
Assays:
[1] = Molar enthalpy of transition or fusion; conditions: Crystal; DSC
[2] = for Triple point temperature: DTA

Brc1ccc2c(c1)Cc1cc(Br)ccc1-2 [2,7-dibromofluorene]
Conditions	Molar enthalpy of transition or fusion [kcal/mol]
[1]	5.43

[2], Crystal
Conditions	vapor or sublimation pressure
361.15 K, Calculated from knudsen effusion weight loss	9.5e-05 kPa and 9.7e-05 kPa and 9.6e-05 kPa
363.14 K, Calculated from knudsen effusion weight loss	0.000119 kPa and 0.000118 kPa
365.11 K, Calculated from knudsen effusion weight loss	0.000147 kPa and 0.000148 kPa and 0.000144 kPa
367.16 K, Calculated from knudsen effusion weight loss	0.000177 kPa and 0.000179 kPa
369.11 K, Calculated from knudsen effusion weight loss	0.000218 kPa and 0.000214 kPa and 0.000215 kPa
371.1 K, Calculated from knudsen effusion weight loss	0.000267 kPa and 0.000261 kPa
373.15 K, Calculated from knudsen effusion weight loss	0.000318 kPa and 0.000315 kPa and 0.000319 kPa
375.12 K, Calculated from knudsen effusion weight loss	0.000392 kPa and 0.000388 kPa and 0.000382 kPa
377.12 K, Calculated from knudsen effusion weight loss	0.000472 kPa and 0.000478 kPa and 0.000463 kPa
379.15 K, Calculated from knudsen effusion weight loss	0.000556 kPa and 0.00056 kPa and 0.000563 kPa
381.12 K, Calculated from knudsen effusion weight loss	0.000678 kPa and 0.000687 kPa and 0.000674 kPa
382.23 K, Closed cell (Static) method	0.000732 kPa
383.12 K, Calculated from knudsen effusion weight loss	0.000809 kPa and 0.000827 kPa and 0.000832 kPa
384.26 K, Closed cell (Static) method	0.000874 kPa
386.08 K, Closed cell (Static) method	0.001029 kPa
388.21 K, Closed cell (Static) method	0.001254 kPa
390.11 K, Closed cell (Static) method	0.001472 kPa
392.14 K, Closed cell (Static) method	0.001751 kPa
394.16 K, Closed cell (Static) method	0.002104 kPa
396.08 K, Closed cell (Static) method	0.002489 kPa
398.07 K, Closed cell (Static) method	0.002922 kPa

Conditions	Triple point temperature [K]
[2], Crystal	438.79

Brc1ccc2c(c1)Cc1ccccc1-2 [2-bromofluorene]
Conditions	Molar enthalpy of transition or fusion [kcal/mol]
[1]	4.07

[2]
Conditions	vapor or sublimation pressure
327.17 K, Crystal, Calculated from knudsen effusion weight loss	0.000118 kPa and 0.000119 kPa
329.13 K, Crystal, Calculated from knudsen effusion weight loss	0.00015 kPa and 0.000148 kPa
331.09 K, Crystal, Calculated from knudsen effusion weight loss	0.000186 kPa and 0.000183 kPa
333.16 K, Crystal, Calculated from knudsen effusion weight loss	0.000223 kPa and 0.000225 kPa and 0.000229 kPa
335.14 K, Crystal, Calculated from knudsen effusion weight loss	0.00028 kPa and 0.000275 kPa and 0.000279 kPa
337.11 K, Crystal, Calculated from knudsen effusion weight loss	0.000347 kPa and 0.000346 kPa and 0.000343 kPa
339.16 K, Crystal, Calculated from knudsen effusion weight loss	0.000417 kPa and 0.000416 kPa and 0.000425 kPa
341.14 K, Crystal, Calculated from knudsen effusion weight loss	0.000515 kPa and 0.000501 kPa
343.1 K, Crystal, Calculated from knudsen effusion weight loss	0.000627 kPa and 0.000626 kPa and 0.000634 kPa
345.16 K, Crystal, Calculated from knudsen effusion weight loss	0.000749 kPa and 0.000747 kPa and 0.000758 kPa
347.09 K, Crystal, Calculated from knudsen effusion weight loss	0.000928 kPa and 0.000929 kPa and 0.000909 kPa
349.09 K, Crystal, Calculated from knudsen effusion weight loss	0.00112 kPa and 0.001125 kPa and 0.001127 kPa
350.8 K, Crystal, Closed cell (Static) method	0.001323 kPa
352.79 K, Crystal, Closed cell (Static) method	0.001593 kPa
354.74 K, Crystal, Closed cell (Static) method	0.001921 kPa
356.73 K, Crystal, Closed cell (Static) method	0.002274 kPa
358.7 K, Crystal, Closed cell (Static) method	0.002726 kPa
360.67 K, Crystal, Closed cell (Static) method	0.003206 kPa
362.65 K, Crystal, Closed cell (Static) method	0.003848 kPa
364.63 K, Crystal, Closed cell (Static) method	0.00452 kPa
366.6 K, Crystal, Closed cell (Static) method	0.005367 kPa
368.56 K, Crystal, Closed cell (Static) method	0.006271 kPa
370.56 K, Crystal, Closed cell (Static) method	0.007492 kPa
372.53 K, Crystal, Closed cell (Static) method	0.008716 kPa
374.47 K, Metastable liquid, Closed cell (Static) method	0.012 kPa
374.5 K, Crystal, Closed cell (Static) method	0.0103 kPa
376.47 K, Crystal, Closed cell (Static) method	0.01202 kPa
376.47 K, Metastable liquid, Closed cell (Static) method	0.01362 kPa
378.44 K, Crystal, Closed cell (Static) method	0.01403 kPa
378.44 K, Metastable liquid, Closed cell (Static) method	0.01541 kPa
380.4 K, Crystal, Closed cell (Static) method	0.01634 kPa
380.4 K, Metastable liquid, Closed cell (Static) method	0.01749 kPa
382.39 K, Metastable liquid, Closed cell (Static) method	0.01992 kPa
384.36 K, Metastable liquid, Closed cell (Static) method	0.02244 kPa
386.34 K, Metastable liquid, Closed cell (Static) method	0.02529 kPa
388.31 K, Metastable liquid, Closed cell (Static) method	0.02854 kPa
390.28 K, Closed cell (Static) method, Liquid	0.03201 kPa
392.25 K, Closed cell (Static) method, Liquid	0.03602 kPa
394.21 K, Closed cell (Static) method, Liquid	0.04022 kPa
396.18 K, Closed cell (Static) method, Liquid	0.04506 kPa
398.13 K, Closed cell (Static) method, Liquid	0.05046 kPa
400.11 K, Closed cell (Static) method, Liquid	0.05625 kPa
402.06 K, Closed cell (Static) method, Liquid	0.0628 kPa
404.05 K, Closed cell (Static) method, Liquid	0.06988 kPa
405.99 K, Closed cell (Static) method, Liquid	0.0774 kPa
407.97 K, Closed cell (Static) method, Liquid	0.08499 kPa
409.95 K, Closed cell (Static) method, Liquid	0.0938 kPa
411.9 K, Closed cell (Static) method, Liquid	0.1045 kPa
413.88 K, Closed cell (Static) method, Liquid	0.1164 kPa
415.84 K, Closed cell (Static) method, Liquid	0.1264 kPa
417.81 K, Closed cell (Static) method, Liquid	0.1398 kPa
419.77 K, Closed cell (Static) method, Liquid	0.1534 kPa

Conditions	Triple point temperature [K]
[2], Crystal	387.39

— the NIST ThermoML archive (doi:10.1016/j.jct.2015.05.001)
